Laboratory results from BindingDB's records for doi:10.1016/j.bmcl.2004.07.091 (Keio University, 2004).

biological target: T1, Beta-galactosidase (Bos taurus, UniProt Q58D55); experiment: Inhibition of Beta-galactosidase of bovine liver; no inhibition
T1 sequence (Q58D55 whole entry): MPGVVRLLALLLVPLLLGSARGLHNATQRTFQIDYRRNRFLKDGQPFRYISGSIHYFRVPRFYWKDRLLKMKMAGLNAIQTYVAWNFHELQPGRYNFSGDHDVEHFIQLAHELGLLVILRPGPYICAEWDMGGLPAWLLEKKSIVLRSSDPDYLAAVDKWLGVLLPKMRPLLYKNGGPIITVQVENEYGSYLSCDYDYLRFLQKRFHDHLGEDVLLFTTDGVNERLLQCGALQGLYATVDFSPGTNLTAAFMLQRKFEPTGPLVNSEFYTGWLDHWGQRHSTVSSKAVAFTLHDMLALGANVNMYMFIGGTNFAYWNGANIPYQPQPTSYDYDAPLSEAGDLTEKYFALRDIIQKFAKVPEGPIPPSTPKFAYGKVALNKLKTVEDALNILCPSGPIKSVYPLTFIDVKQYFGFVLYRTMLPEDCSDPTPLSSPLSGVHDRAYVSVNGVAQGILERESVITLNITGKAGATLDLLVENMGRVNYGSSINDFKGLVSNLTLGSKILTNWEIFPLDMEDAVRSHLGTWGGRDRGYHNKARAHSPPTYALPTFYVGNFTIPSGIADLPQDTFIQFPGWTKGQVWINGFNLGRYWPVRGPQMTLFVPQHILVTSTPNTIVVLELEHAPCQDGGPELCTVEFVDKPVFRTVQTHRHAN

IC50 [µM] | Structure (SMILES)
> 1000 | CO[C@@H]1CC2COC(C1O)[C@H]2NC1CC(CO)C(O)C(O)C1O (stereo partly drawn) [4-((3R,8S)-4-Hydroxy-3-methoxy-6-oxa-bicyclo[3.2.1]oct-8-ylamino)-6-hydroxymethyl-cyclohexane-1,2,3-triol]
> 1000 | N[C@H]1C[C@H](CO)[C@@H](O)[C@H](O)[C@H]1O
> 1000 | CC(=O)NC1CC(CO)C(O)C(O)C1O (stereo unspecified) [N-(2,3,4-Trihydroxy-5-hydroxymethyl-cyclohexyl)-acetamide]

biological target: beta-glucosidase (Rattus norvegicus); experiment: Inhibition of Beta-glucosidase of rat intestine; no inhibition

IC50 [µM] | Structure (SMILES)
> 1000 | CO[C@@H]1CC2COC(C1O)[C@H]2NC1CC(CO)C(O)C(O)C1O (stereo partly drawn) [4-((3R,8S)-4-Hydroxy-3-methoxy-6-oxa-bicyclo[3.2.1]oct-8-ylamino)-6-hydroxymethyl-cyclohexane-1,2,3-triol]
> 1000 | C=C1CC(NCCCCCCCC)C(O)C(O)C1O (stereo unspecified) [4-Methylene-6-octylamino-cyclohexane-1,2,3-triol]
> 1000 | CCCCCCCCNC1CC(CO)C(O)C(O)C1O (stereo unspecified) [4-Hydroxymethyl-6-octylamino-cyclohexane-1,2,3-triol]
